Source: publication PMC12265377, “CC48 a new CB2R agonist/FAAH inhibitor dual drug blocks gastric cancer progression and overcomes paclitaxel resistance” (Journal of Experimental & Clinical Cancer Research : CR, 2025)
Values joined by “and” are separate entries in the source; they are usually repeats but may differ in a detail not shown here. Equal entries are not always repeated.

What was measured:
[1] = test system: NCI-N87_LUC cell line; assay: Mouse model by intraperitoneal NCI-N87_LUC inoculation, tumor growth by IVIS; type: in vivo, CD1-nude female mice; settings: for BLI measurement, individual animals: listed as FI-5; for tumor volume vs control group (vehicle): day 41
Description: EighteenCD1-nude female mice(Charles River Laboratories International, Inc.) were intraperitoneally injected with the NCI-N87 cell line, stable transfected with the luciferase gene (NCl-N87_LUC) at a concentration of 2 × 10^6/100µL cells. Experimental groups and treatments are described in the table below (Table 1). Two concentrations of the CC48 molecule, 10 and 20 mg/Kg, were tested in two experimental groups. A third group was treated with the vehicle, consisting of20% DMSO, 10% Cyclodextrin and distilled water. […] The staff involved in the study recorded all the observations on recording forms. The data concerning animals’ body weight, clinical signs, feed intake and TP intake were recorded on the experimental register. All the corrections on data collection forms were made according to the Test Facility SOPs. All derived values, of registered tumor volumes, which are reported in the Tables S2 and S3 and relative graphs, such as mean and standard deviation, represent the rounded-up results of calculation performed with Microsoft Excel. Dunnett’s multiple comparison statistical test was applied.

[2] = test system: CB1R; set-up: method as in PMID 36657299; settings: cited from earlier work

SMILES: O=C(NC12CC3CC(CC(C3)C1)C2)c1ccccc1OCc1ccccc1 [CC48]
- BLI measurement, group MEAN ([1]; GP2 10mg/kg, DAY 5, n 5 (outlier ID 7 excluded)): 1,45E+05
- BLI measurement, individual animals ([1]; GP2 10mg/kg, DAY 5): 1,32E+06 and 5,58E+05 and 1,13E+05 and 4,14E+04 and 9,93E+03 and 3,23E+03
- BLI measurement, group MEAN ([1]; GP2 10mg/kg, DAY 7, n 5): 1,29E+05
- BLI measurement, individual animals ([1]; GP2 10mg/kg, DAY 7): 1,55E+06 and 5,41E+05 and 7,10E+04 and 2,79E+04 and 3,30E+03 and 2,39E+03
- BLI measurement, group MEAN ([1]; GP2 10mg/kg, DAY 10, n 5): 1,07E+05
- BLI measurement, individual animals ([1]; GP2 10mg/kg, DAY 10): 1,30E+06 and 4,73E+05 and 4,20E+04 and 1,70E+04 and 2,56E+03 and 2,69E+03
- BLI measurement, group MEAN ([1]; GP2 10mg/kg, DAY 14, n 5): 1,83E+05
- BLI measurement, individual animals ([1]; GP2 10mg/kg, DAY 14): 7,07E+05 and 8,53E+05 and 3,80E+04 and 1,58E+04 and 2,68E+03 and 3,22E+03
- BLI measurement, group MEAN ([1]; GP2 10mg/kg, DAY 17, n 5): 2,73E+05
- BLI measurement, individual animals ([1]; GP2 10mg/kg, DAY 17): 8,99E+05 and 1,29E+06 and 6,23E+04 and 1,12E+04 and 1,95E+03 and 1,85E+03
- BLI measurement, group MEAN ([1]; GP2 10mg/kg, DAY 24, n 5): 3,18E+05
- BLI measurement, individual animals ([1]; GP2 10mg/kg, DAY 24): 1,09E+06 and 1,51E+06 and 6,35E+04 and 1,11E+04 and 2,24E+03 and 2,96E+03
- BLI measurement, group MEAN ([1]; GP2 10mg/kg, DAY 31, n 5): 3,12E+05
- BLI measurement, individual animals ([1]; GP2 10mg/kg, DAY 31): 1,51E+06 and 1,43E+06 and 1,11E+05 and 1,60E+04 and 3,40E+03 and 3,65E+03
- BLI measurement, group MEAN ([1]; GP2 10mg/kg, DAY 35, n 5): 2,44E+05
- BLI measurement, individual animals ([1]; GP2 10mg/kg, DAY 35): 2,93E+06 and 1,06E+06 and 1,41E+05 and 1,56E+04 and 3,01E+03 and 3,50E+03
- BLI measurement, group MEAN ([1]; GP2 10mg/kg, DAY 38, n 5): 4,60E+04
- BLI measurement, individual animals ([1]; GP2 10mg/kg, DAY 38): 4,74E+06 and 1,04E+05 and 1,11E+05 and 9,13E+03 and 2,90E+03 and 2,69E+03
- BLI measurement, group MEAN ([1]; GP2 10mg/kg, DAY 41, n 5): 2,12E+05
- BLI measurement, individual animals ([1]; GP2 10mg/kg, DAY 41): 3,93E+06 and 8,93E+05 and 1,54E+05 and 9,95E+03 and 3,19E+03 and 2,28E+03
- tumor volume vs control group (vehicle) ([1]; GP2, 10 mg/kg IP every other day, p < 0.01): substantial and significant decrease in tumor volume
- BLI measurement, group MEAN ([1]; GP3 20mg/kg, DAY 5, n 5 (outlier ID 13 excluded)): 2,03E+05
- BLI measurement, individual animals ([1]; GP3 20mg/kg, DAY 5): 1,03E+06 and 8,12E+05 and 1,11E+05 and 7,63E+04
- BLI measurement, group MEAN ([1]; GP3 20mg/kg, DAY 7, n 5): 1,10E+05
- BLI measurement, individual animals ([1]; GP3 20mg/kg, DAY 7): 7,47E+05 and 4,61E+05 and 2,67E+04 and 5,08E+04
- BLI measurement, group MEAN ([1]; GP3 20mg/kg, DAY 10, n 5): 8,98E+04
- BLI measurement, individual animals ([1]; GP3 20mg/kg, DAY 10): 3,56E+05 and 3,68E+05 and 3,53E+04 and 3,80E+04
- BLI measurement, group MEAN ([1]; GP3 20mg/kg, DAY 14, n 5): 1,18E+05
- BLI measurement, individual animals ([1]; GP3 20mg/kg, DAY 14): 1,23E+06 and 5,29E+05 and 3,27E+04 and 1,72E+04
- BLI measurement, group MEAN ([1]; GP3 20mg/kg, DAY 17, n 5): 1,51E+05
- BLI measurement, individual animals ([1]; GP3 20mg/kg, DAY 17): 1,63E+06 and 7,10E+05 and 2,61E+04 and 1,16E+04
- BLI measurement, group MEAN ([1]; GP3 20mg/kg, DAY 24, n 5): 2,46E+05
- BLI measurement, individual animals ([1]; GP3 20mg/kg, DAY 24): 1,67E+06 and 1,15E+06 and 3,46E+04 and 3,03E+04
- BLI measurement, group MEAN ([1]; GP3 20mg/kg, DAY 31, n 5): 2,64E+05
- BLI measurement, individual animals ([1]; GP3 20mg/kg, DAY 31): 1,22E+06 and 1,26E+06 and 2,79E+04 and 1,85E+04
- BLI measurement, group MEAN ([1]; GP3 20mg/kg, DAY 35, n 5): 3,58E+05
- BLI measurement, individual animals ([1]; GP3 20mg/kg, DAY 35): 2,08E+06 and 1,71E+06 and 4,56E+04 and 2,63E+04
- BLI measurement, group MEAN ([1]; GP3 20mg/kg, DAY 38, n 5): 2,00E+05
- BLI measurement, individual animals ([1]; GP3 20mg/kg, DAY 38): 2,42E+06 and 9,14E+05 and 3,50E+04 and 4,29E+04
- BLI measurement, group MEAN ([1]; GP3 20mg/kg, DAY 41, n 5): 2,00E+04
- BLI measurement, individual animals ([1]; GP3 20mg/kg, DAY 41): 1,34E+06 and 3,58E+04 and 3,11E+04 and 2,06E+04
- tumor volume vs control group (vehicle) ([1]; GP3, 20 mg/kg IP every other day, p < 0.001): statistically significant difference in the size of the tumor mass
- EC50 [2]: 489 nM
